Test results: patent US20110244059A1, “INHIBITING OBESITY PROGRESSION BY INHIBITING ADIPOCYTE DIFFERENTIATION WITH A PRE-ADIPOCYTE AUTOPHAGY INHIBITOR” (The University of Medicine and Dentistry of New Jersey, priority 2008, published 2011)
“Also recorded” adds a separate entry of the source.

Legend:
wild type primary MEFs = assay: Adipocyte differentiation (adipogenesis) of primary MEFs under standard induction protocol; type: cell-based, mouse
Experimental: The MEFs were prepared from 13.5 days embryos of atg5+/+ and atg5−/− mice according to standard protocol. Briefly, whole mouse embryos were removed from the uterus, dissected and the head, tail, limbs and all internal organs were removed. The carcasses were minced, washed in PBS, and then incubated in 2 ml 0.05% Trypsin-EDTA (Invitrogen, CA, US) at 37° C. for 20 min with shaking. The digested cells were plated on a 100-mm dish in Dulbecco's modified Eagle's medium (DMEM, Invitrogen) with 10% fetal bovine serum (FCS, Invitrogen) and incubated at 37° C. in humidified air containing 5% CO2. Cells were grown for 24 hr until the culture was 90% confluent, and then split and passed on. The primary MEF cells of passage three to five were treated under standard protocol to induce adipocyte differentiation (Banks, A. S., et al. Deletion of SOCS7 leads to enhanced insulin action and enlarged islets of Langerhans. J. Clin. Invest. September 2005 115, 2462-2471). Briefly, cells were seeded in 6-well plates with cover slips and propagated to confluence. 48 hours later, which was designated as Day 0, differentiation was initiated using Dulbecco's Modified Eagle's Medium (DMEM) containing 10% fetal bovine serum, 5 μg/ml insulin, 1 μM dexamethasone, 0.5 mM 3-Isobutyl-1-methylxanthine (IBMX), and 10 μM troglitazone (Sigma, MO, US). After 2-day initiation, the media was replaced with a maintenance medium (DMEM containing 10% fetal bovine serum, 5 μg/ml insulin, and 10 μM troglitazone). Fresh maintenance medium was replaced every 2 days thereafter. Cells collected at various time points, up to maximal 14 days.
The medium was replaced with maintenance medium including 10 μM CQ two days after initiation. Fresh maintenance medium with 10 μM CQ was replaced every two days thereafter.
Live cells were observed under the Olympus IX70 microscope with relief contrast objectives (10× or 40×). […] For time-lapse microscopy, cells were plated on tissue culture plates and monitored using Olympus IX70 microscope with the 37° C. and 5% CO2 environmental chamber using 10× objectives. Images were collected with CCD video camera (Model MicroMax; Princeton Instruments, Trenton, N.J., US) at 5 min intervals and saved as images stacks using IPLab software (BD Biosciences Bioimaging, Rockville, Md., US). Images were processed using Image J software (NIH, Bethesda, Md., US).
Bodipy: The differentiating cells were stained with BODIPY 493/503 (Invitrogen, CA, US) as described (DiDanato, D. et al. Fixation methods for the study of lipid droplets by immunofluorescence microscopy. J Histochem. Cytochem June 2003 51, 773-780; Gocze, P. M. et al. Factors underlying the variability of lipid droplet fluorescence in MA-10 Lydig tumor cells. Cytometry 17, 151-158.) Briefly, the cell culture slides were washed once with phosphate-buffered saline (PBS), fixed with 3% paraformaldehyde in PBS for 30 minutes at room temperature, and washed 4 times with PBS, and then stained with 10 μg/ml Bodipy 493/503 at room temperature for 15 minutes in darkness, mounted with Vectashield Mounting Medium (Vector Laboratories, CA, US). Oil Red-O: The cells on cover slides were stained with Oil Red-O (Sigma, MO, US) according to Kim et al with some modification (Kim, Y. K., et al. Reversine stimulates adipocyte differentiation and downregulates Akt and p70(s6k) singaling pathways in 3T3-L1 cells. Biochem Biophys Res Commun 358, 553-558). Oil Red-O was dissolved in isopropanol to 3.5 mg/ml. Before using, dilute 6 parts Oil Red-O stock with 4 parts H2O, sit at room temp for 20 min, and filter through 0.2 μm filter. The slides were washed once with PBS, fixed with 4% paraformaldehyde (Fisher Scientific, PA, US) buffered with PBS for 1 hr, and then washed twice with 60% isopropanol for 5 minutes each. Cells were then air dried and stained with Oil Red-O working solution for 30 minutes at 25° C.

Row | SMILES | adipocyte differentiation of primary MEFs (wild type primary MEFs; 1 micro molar hydroxychloroquine, lesser degree than 10 micro molar) | adipocyte differentiation of primary MEFs (wild type primary MEFs; 5 micro molar hydroxychloroquine, lesser degree than 10 micro molar) | adipocyte differentiation of primary MEFs (wild type primary MEFs; 10 micro molar hydroxychloroquine during differentiation induction) | fate of cells that did differentiate (wild type primary MEFs; hydroxychloroquine treatment, 10 micro molar) | viability of the undifferentiated cells (wild type MEFs) | lipid accumulation, Bodipy 493/503 staining (wild type primary MEFs; 10 μM chloroquine, 14 days after differentiation induction, FIG. 9B) | lipid accumulation, Oil Red-O staining (spectrometry) (wild type primary MEFs; 10 μM chloroquine, 14 days after differentiation induction, FIG. 9C) | cytotoxic effect on MEFs (Tunel assay) (wild type MEFs; 10 μM chloroquine for 4 days, FIG. 9D)
1 | CCN(CCO)CCCC(C)Nc1ccnc2cc(Cl)ccc12 (centres unmarked) [hydroxychloroquine] | had inhibitory effect on blocking adipocyte differentiation | had inhibitory effect on blocking adipocyte differentiation | stalled at the initial stage of adipocyte differentiation | eventually died | not apparently affected | – | – | –
2 | CCN(CC)CCCC(C)Nc1ccnc2cc(Cl)ccc12 (centres unmarked) [chloroquine] | – | – | – | – | – | same inhibitory effect | same inhibitory effect | little cytotoxic effect; also recorded: non-toxic
